Molecular target: T1, GluN2A-ZnT1 interactions (Rattus norvegicus, UniProt Q62720)
T1 construct: endogenous in cells; host or cells: rat embryonic (E16) cortical cultures, 3-4 weeks in vitro
T1 sequence (Q62720 1-507): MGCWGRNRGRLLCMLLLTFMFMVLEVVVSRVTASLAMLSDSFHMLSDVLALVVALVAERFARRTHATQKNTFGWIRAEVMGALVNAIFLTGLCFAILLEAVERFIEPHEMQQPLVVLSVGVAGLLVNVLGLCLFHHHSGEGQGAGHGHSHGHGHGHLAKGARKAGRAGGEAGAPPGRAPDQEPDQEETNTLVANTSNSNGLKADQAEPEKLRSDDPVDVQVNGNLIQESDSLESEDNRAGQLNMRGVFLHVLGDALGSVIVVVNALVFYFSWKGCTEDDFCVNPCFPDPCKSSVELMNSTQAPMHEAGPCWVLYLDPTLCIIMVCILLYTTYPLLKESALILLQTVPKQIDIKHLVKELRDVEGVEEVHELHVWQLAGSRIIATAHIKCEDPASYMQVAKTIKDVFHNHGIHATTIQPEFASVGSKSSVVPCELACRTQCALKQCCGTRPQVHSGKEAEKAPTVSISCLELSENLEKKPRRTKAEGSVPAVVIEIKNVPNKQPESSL
Test: Proximity ligation assay (PLA) between GluN2A and ZnT1 in cortical cultures
Type: cell-based
Conditions: 3 μM overnight, cortical cultures 21-25 DIV, compared to scramble controls in sister cultures
Description: FIGS. 3A-3B: N2AZ disrupts ZnT1 binding to the GluN2A subunit of NMDAR. (FIG. 3A) Representative images of rat cortical cultures following proximity ligation assay (PLA) between GluN2A and ZnT1. The PLA immunofluorescently labeled sites of interaction between GluN2A and ZnT1 (white punctae). Additionally, Map2 is immunofluorescently labeled to visualize neuron morphology. Scale bar: 20 μm. Top row denotes PLA assay following overnight exposure to 3 μM scN2AZ, while bottom row denotes PLA assay following 3 μM N2AZ treatment. Insets show the localization of PLA punctae along a Map2 stained dendrite. […] Filled circles indicate the quantification of representative images in FIG. 3A. Error bars indicate mean±SEM. […]
Proximity ligation assays were performed using Duolink PLA kit. […] PLA puncta were counted automatically using Fiji ImageJ (Version 2.0) software using maximum intensity projection of 8 sequential images in the z plane. All images were normalized to the same intensity threshold using the Yen threshold setting prior to automated quantification of punctae.
Next, rat neuronal cortical cultures were utilized to determine whether N2AZ treatment was sufficient to disrupt GluN2A-ZnT1 binding in vitro. First, however, ZnT1 expression in cortical cultures was verified using quantitative PCR. […] Next, GluN2A-ZnT1 interactions in the cultures were quantified using a proximity ligation assay (PLA). […]

NDSYLRSSL [Peptide N2AZ]
amount of PLA puncta: significantly reduced
